Each block holds one compound with its values, some of them ahead of it. Calls of active or inactive are those of the source. The rule behind the calls is not given here.
Assays:
Dipeptidyl peptidase 4 [1] = biological target: T1, Dipeptidyl peptidase 4 (Homo sapiens, UniProt P27487); assay: Inhibition of DPP4 in human plasma using GP-BAN as fluorescent substrate preincubated for 5 mins followed by substrate addition and measured for 20 mins by microplate reader analysis; assay type: cell-free
Target sequence in this assay (P27487 whole entry): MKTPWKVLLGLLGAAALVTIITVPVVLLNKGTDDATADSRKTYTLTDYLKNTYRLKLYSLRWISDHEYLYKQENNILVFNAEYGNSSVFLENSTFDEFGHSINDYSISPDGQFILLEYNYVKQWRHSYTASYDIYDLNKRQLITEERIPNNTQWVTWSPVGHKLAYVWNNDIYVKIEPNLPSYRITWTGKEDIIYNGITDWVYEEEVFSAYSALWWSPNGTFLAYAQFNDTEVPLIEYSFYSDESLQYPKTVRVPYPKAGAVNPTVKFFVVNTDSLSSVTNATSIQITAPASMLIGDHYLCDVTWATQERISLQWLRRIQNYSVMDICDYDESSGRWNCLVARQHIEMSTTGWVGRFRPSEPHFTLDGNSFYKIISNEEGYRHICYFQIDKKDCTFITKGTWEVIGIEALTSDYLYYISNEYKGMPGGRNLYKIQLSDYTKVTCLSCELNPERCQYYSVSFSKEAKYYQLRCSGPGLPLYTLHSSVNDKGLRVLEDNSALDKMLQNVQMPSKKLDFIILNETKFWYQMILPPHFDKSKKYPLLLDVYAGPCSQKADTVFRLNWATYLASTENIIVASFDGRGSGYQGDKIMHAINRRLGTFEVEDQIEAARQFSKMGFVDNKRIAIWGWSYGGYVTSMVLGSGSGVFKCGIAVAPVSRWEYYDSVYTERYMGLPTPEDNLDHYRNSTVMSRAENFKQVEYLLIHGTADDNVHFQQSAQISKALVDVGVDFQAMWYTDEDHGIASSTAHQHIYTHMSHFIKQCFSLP

RAW264.7 [2] = assay: Cytotoxicity against mouse RAW264.7 cells assessed as cell growth inhibition incubated for 48 hrs by CCK-8 assay; assay type: toxicity, cell-based; conditions: raw264.7, 48 h
Dipeptidyl peptidase 4 [3] = biological target: T1, Dipeptidyl peptidase 4; assay: Inhibition of DPP4 in human HepG2 cells using GP-BAN as substrate assessed reduction of reduction in substrate hydrolysis at 20 uM incubated for 30 mins by Hoechst 33342 staining based assay; assay type: cell-based
Target sequence in this assay (P27487 whole entry, looked up): as the sequence (P27487 whole entry) above

RAW264.7 [4] = assay: Anti-inflammatory activity in mouse RAW264.7 cells assessed as downregulation of LPS-stimulated TNF-alpha mRNA expression at 20 to 100 uM preincubated for 4 hrs followed by LPS-stimulation for 24 hrs by qPCR analysis; assay type: functional, cell-based; conditions: dose 20-100 µM, time 28.0 hrs
[5] = Metabolic stability in human liver microsomes assessed as UDPGA-dependent drug metabolism by measuring half life at 10 uM preincubated for 3 mins followed by UDPGA addition measured for 90 mins by LC-UV analysis; assay type: ADME, Microsome; conditions: time 93 min
Dipeptidyl peptidase 4 [6] = biological target: T1, Dipeptidyl peptidase 4; assay: Mixed type inhibition of DPP4 (unknown origin) using varying concentrations of GP-BAN as substrate assessed as inhibition constant
Target sequence in this assay (P27487 whole entry): as above

RPTEC = assay: Cytotoxicity against human RPTEC cells assessed as cell growth inhibition incubated for 48 hrs by CCK-8 assay; assay type: toxicity, cell-based
RAW264.7 [7] = assay: Anti-inflammatory activity in mouse RAW264.7 cells assessed as downregulation of LPS-stimulated IL-1beta mRNA expression at 20 to 100 uM preincubated for 4 hrs followed by LPS-stimulation for 24 hrs by qPCR analysis; assay type: functional, cell-based; conditions: dose 20-100 µM, time 28.0 hrs
Dipeptidyl peptidase 4 [8] = biological target: T1, Dipeptidyl peptidase 4; assay: Inhibition of DPP4 in human Caco-2 cells using GP-BAN as substrate assessed reduction of reduction in substrate hydrolysis at 20 uM incubated for 30 mins by Hoechst 33342 staining based assay; assay type: cell-based
Target sequence in this assay (P27487 whole entry, looked up): as the sequence (P27487 whole entry) above

RAW264.7 [9] = assay: Anti-inflammatory activity in mouse RAW264.7 cells assessed as downregulation of LPS-stimulated IL-6 mRNA expression at 20 to 100 uM preincubated for 4 hrs followed by LPS-stimulation for 24 hrs by qPCR analysis; assay type: functional, cell-based; conditions: dose 20-100 µM, time 28.0 hrs
Homo sapiens [10] = species: Homo sapiens; assay: Selectivity index, ratio of IC50 for inhibition of recombinant human PREP to IC50 for inhibition of recombinant human DPP4
Homo sapiens [11] = species: Homo sapiens; assay: Selectivity index, ratio of IC50 for inhibition of recombinant human DPP9 to IC50 for inhibition of recombinant human DPP4
Dipeptidyl peptidase 9 = Dipeptidyl peptidase 9 (Homo sapiens, UniProt Q86TI2); assay: Inhibition of recombinant human DPP9 using Z-GP-AMC as substrate preincubated for 5 mins followed by substrate addition and measured after 20 mins by microplate reader analysis
[12] = Metabolic stability in human liver microsomes assessed as […] drug metabolism by measuring half life at 10 uM preincubated for 3 mins followed by NADPH addition measured for 90 mins by LC-UV analysis; assay type: ADME, Microsome; conditions: time 93 min
Dipeptidyl peptidase 4 [13] = biological target: T1, Dipeptidyl peptidase 4; assay: Inhibition of recombinant human DPP4 using GP-BAN as substrate preincubated for 5 mins followed by substrate addition and measured after 20 mins by microplate reader analysis
Target sequence in this assay (P27487 whole entry): as above

Prolyl endopeptidase FAP = biological target: T2, Prolyl endopeptidase FAP (Homo sapiens, UniProt Q12884); assay: Inhibition of recombinant human FAP using Z-GP-AMC as substrate preincubated for 5 mins followed by substrate addition and measured after 20 mins by microplate reader analysis
T2 sequence (Q12884 whole entry): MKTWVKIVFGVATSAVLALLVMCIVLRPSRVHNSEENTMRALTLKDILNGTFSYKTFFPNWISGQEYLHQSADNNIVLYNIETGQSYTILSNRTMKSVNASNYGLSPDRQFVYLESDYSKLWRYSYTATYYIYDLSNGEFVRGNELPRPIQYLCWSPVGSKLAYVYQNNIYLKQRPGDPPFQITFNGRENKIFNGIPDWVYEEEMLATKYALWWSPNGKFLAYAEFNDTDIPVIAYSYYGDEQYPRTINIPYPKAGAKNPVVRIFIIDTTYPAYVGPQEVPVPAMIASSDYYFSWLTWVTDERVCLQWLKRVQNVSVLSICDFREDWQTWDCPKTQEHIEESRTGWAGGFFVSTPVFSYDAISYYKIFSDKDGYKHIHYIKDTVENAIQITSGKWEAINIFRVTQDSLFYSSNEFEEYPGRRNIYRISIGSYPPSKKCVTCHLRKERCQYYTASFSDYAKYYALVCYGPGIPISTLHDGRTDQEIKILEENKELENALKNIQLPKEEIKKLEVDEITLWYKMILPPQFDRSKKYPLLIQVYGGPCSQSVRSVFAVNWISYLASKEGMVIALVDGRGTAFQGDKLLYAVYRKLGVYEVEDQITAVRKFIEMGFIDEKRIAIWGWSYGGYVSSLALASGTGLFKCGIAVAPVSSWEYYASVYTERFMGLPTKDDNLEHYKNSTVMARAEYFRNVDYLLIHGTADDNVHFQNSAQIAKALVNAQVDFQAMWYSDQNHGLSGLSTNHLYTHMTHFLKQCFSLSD

[14] = Stability of the compound in artificial intestinal fluid at 10 uM incubated for 90 mins by LC-UV analysis; assay type: ADME; conditions: simulated gi fluid, 1.5 h
Prolyl endopeptidase = biological target: T3, Prolyl endopeptidase (Homo sapiens, UniProt P48147); assay: Inhibition of recombinant human PREP using Z-GP-AMC as substrate preincubated for 5 mins followed by substrate addition and measured after 20 mins by microplate reader analysis
T3 sequence (P48147 whole entry): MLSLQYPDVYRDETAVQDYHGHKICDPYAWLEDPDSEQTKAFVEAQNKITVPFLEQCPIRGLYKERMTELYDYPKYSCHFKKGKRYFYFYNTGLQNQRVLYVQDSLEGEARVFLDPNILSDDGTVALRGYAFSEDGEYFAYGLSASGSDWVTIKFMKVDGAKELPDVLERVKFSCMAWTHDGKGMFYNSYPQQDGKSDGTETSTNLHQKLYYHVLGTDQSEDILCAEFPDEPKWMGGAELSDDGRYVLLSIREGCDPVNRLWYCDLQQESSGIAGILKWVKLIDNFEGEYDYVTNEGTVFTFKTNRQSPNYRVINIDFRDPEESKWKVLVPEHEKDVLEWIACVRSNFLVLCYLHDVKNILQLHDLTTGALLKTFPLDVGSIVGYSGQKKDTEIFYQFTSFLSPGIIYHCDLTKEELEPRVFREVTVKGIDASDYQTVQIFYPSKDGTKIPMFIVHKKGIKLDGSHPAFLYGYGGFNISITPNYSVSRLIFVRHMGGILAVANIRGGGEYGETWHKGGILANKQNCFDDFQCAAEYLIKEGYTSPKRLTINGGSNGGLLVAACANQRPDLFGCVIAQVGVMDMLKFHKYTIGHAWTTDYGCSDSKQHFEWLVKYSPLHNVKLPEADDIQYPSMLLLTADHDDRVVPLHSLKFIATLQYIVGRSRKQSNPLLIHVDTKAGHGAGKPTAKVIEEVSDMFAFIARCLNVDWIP

Prothrombin = Prothrombin (Homo sapiens, UniProt P00734); assay: Inhibition of recombinant thrombin in human plasma using […] as substrate preincubated for 3 mins followed by substrate addition and measured for 30 mins by microplate reader analysis; assay type: cell-free
[15] = Stability of the compound in artificial gastric fluid at 10 uM incubated for 90 mins by LC-UV analysis; assay type: ADME; conditions: simulated gi fluid, 1.5 h

Chain of Dipeptidyl peptidase 9 (Q86TI2 whole entry): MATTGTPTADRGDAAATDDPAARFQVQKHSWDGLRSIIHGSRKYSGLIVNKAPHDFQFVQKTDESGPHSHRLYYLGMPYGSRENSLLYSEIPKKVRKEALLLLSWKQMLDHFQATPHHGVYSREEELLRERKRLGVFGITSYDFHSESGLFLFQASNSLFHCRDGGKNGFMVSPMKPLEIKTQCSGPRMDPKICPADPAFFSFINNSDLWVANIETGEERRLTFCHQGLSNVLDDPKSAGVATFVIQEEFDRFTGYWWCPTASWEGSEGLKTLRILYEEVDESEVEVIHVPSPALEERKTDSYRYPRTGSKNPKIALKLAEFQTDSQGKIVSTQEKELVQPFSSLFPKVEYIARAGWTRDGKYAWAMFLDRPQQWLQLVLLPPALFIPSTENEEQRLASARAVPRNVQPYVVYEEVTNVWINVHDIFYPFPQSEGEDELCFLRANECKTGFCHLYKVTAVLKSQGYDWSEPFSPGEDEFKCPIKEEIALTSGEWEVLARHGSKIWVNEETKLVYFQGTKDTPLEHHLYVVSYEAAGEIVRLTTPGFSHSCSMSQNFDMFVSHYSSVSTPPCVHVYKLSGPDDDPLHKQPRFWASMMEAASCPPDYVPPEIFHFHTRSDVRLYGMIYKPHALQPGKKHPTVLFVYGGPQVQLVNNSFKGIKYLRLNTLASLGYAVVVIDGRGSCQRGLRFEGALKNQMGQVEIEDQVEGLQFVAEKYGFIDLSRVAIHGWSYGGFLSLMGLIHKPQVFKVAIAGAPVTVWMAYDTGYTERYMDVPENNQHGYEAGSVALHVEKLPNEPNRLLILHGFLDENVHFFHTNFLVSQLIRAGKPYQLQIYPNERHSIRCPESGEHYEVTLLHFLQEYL

IC50 (Dipeptidyl peptidase 4 [1]): 42.9 µM
Structure (SMILES): CCCCOc1ccc(C(=O)/C=C/c2cc(Cl)c(O)cc2OC)cc1

IC50 (Dipeptidyl peptidase 4 [1]): 7.16 µM
inhibition (Dipeptidyl peptidase 4 [3]): Active
half-life at 10 µM [5]: 7.1 min
Ki (Dipeptidyl peptidase 4 [6]): 6.57 µM
inhibition (Dipeptidyl peptidase 4 [8]): Active
Structure (SMILES): COc1cc(O)c(Cl)cc1/C=C/C(=O)c1ccc(O)cc1
Activity (RAW264.7 [2]): Non-Toxic
Activity (RAW264.7 [4]): Active
Activity (RPTEC): Non-Toxic
Activity (RAW264.7 [7]): Active
Activity (RAW264.7 [9]): Active

IC50 (Dipeptidyl peptidase 4 [1]): 49.2 µM
Structure (SMILES): COc1cc(OC)c(/C=C/C(=O)c2ccc(O)cc2)cc1Cl

Ratio IC50 (Homo sapiens [10]): > 12.7
Ratio IC50 (Homo sapiens [11]): > 12.7
IC50 (Dipeptidyl peptidase 4 [1]): 4.27 µM
inhibition (Dipeptidyl peptidase 4 [3]): Active
half-life at 10 µM [5]: 25.4 min
IC50 (Dipeptidyl peptidase 9): 86.3 µM
Ki (Dipeptidyl peptidase 4 [6]): 0.96 µM
half-life at 10 µM [12]: 197 min
IC50 (Dipeptidyl peptidase 4 [13]): 4.87 µM
IC50 (Prolyl endopeptidase FAP): > 100 µM
Stability [14]: Stable
IC50 (Prolyl endopeptidase): 62.1 µM
IC50 (Prothrombin): > 100 µM
inhibition (Dipeptidyl peptidase 4 [8]): Active
Stability [15]: Stable
Structure (SMILES): COc1cc(O)c(Cl)cc1/C=C/C(=O)c1ccc(O)c([N+](=O)[O-])c1
Activity (RAW264.7 [2]): Non-Toxic
Activity (RAW264.7 [4]): Active
Activity (RPTEC): Non-Toxic
Activity (RAW264.7 [7]): Active
Activity (RAW264.7 [9]): Active

IC50 (Dipeptidyl peptidase 4 [1]): 9.09 µM
Ki (Dipeptidyl peptidase 4 [6]): 23.1 µM
Structure (SMILES): COc1ccc(C(=O)/C=C/c2cc(Cl)c(O)cc2OC)cc1O

IC50 (Dipeptidyl peptidase 4 [1]): 35 µM
Structure (SMILES): CCOc1ccc(C(=O)/C=C/c2cc(Br)c(O)cc2OC)cc1

IC50 (Dipeptidyl peptidase 4 [1]): 15.1 µM
Structure (SMILES): COc1cc(O)c(Cl)cc1/C=C/C(=O)c1ccc(O)c(C)c1

IC50 (Dipeptidyl peptidase 4 [1]): 8.86 µM
Ki (Dipeptidyl peptidase 4 [6]): 11.1 µM
Structure (SMILES): COc1cc(O)c(Cl)cc1/C=C/C(=O)c1ccc(O)c(O)c1

IC50 (Dipeptidyl peptidase 4 [1]): 11 µM
Structure (SMILES): COc1ccc(C(=O)/C=C/c2cc(Cl)c(O)cc2OC)cc1

half-life at 10 µM [5]: 17.1 min
Structure (SMILES): O=c1ccc2ccc(O)cc2o1 [UMBELLIFERONE]

IC50 (Dipeptidyl peptidase 4 [1]): 11.4 µM
Structure (SMILES): CCCOc1ccc(C(=O)/C=C/c2cc(Cl)c(O)cc2OC)cc1

IC50 (Dipeptidyl peptidase 4 [1]): > 100 µM
Structure (SMILES): COc1ccc(C(=O)/C=C/c2cc(Cl)c(OC)cc2OC)cc1

IC50 (Dipeptidyl peptidase 4 [1]): 6.43 µM
Ki (Dipeptidyl peptidase 4 [6]): 17.4 µM
Structure (SMILES): COc1cc(O)c(Cl)cc1/C=C/C(=O)c1cccc(O)c1

IC50 (Dipeptidyl peptidase 4 [1]): 21.2 µM
Structure (SMILES): CCOc1ccc(C(=O)/C=C/c2cc(Cl)c(O)cc2OC)cc1

IC50 (Dipeptidyl peptidase 4 [1]): 26.5 µM
Structure (SMILES): CCCOc1ccc(C(=O)/C=C/c2cc(Br)c(O)cc2OC)cc1

IC50 (Dipeptidyl peptidase 4 [1]): 34 µM
Structure (SMILES): COc1ccc(C(=O)/C=C/c2cc(Br)c(O)cc2OC)cc1

Structure (SMILES): C[C@@H]1C[C@H]2[C@@H]3CCC4=CC(=O)C=C[C@]4(C)[C@@]3(F)[C@@H](O)C[C@]2(C)[C@@]1(O)C(=O)CO
Activity (RAW264.7 [4]): Active
Activity (RAW264.7 [7]): Active
Activity (RAW264.7 [9]): Active

IC50 (Dipeptidyl peptidase 4 [1]): 16.4 µM
Structure (SMILES): COc1cc(O)c(Br)cc1/C=C/C(=O)c1ccc(O)cc1

IC50 (Dipeptidyl peptidase 4 [1]): > 100 µM
Structure (SMILES): CCCOc1ccc(C(=O)/C=C/c2cc(Cl)c(OC)cc2OC)cc1

IC50 (Dipeptidyl peptidase 4 [1]): > 100 µM
Structure (SMILES): CCOc1ccc(C(=O)/C=C/c2cc(Cl)c(OC)cc2OC)cc1

IC50 (Dipeptidyl peptidase 4 [1]): 31.9 µM
Structure (SMILES): COc1cc(C(=O)/C=C/c2cc(Cl)c(O)cc2OC)ccc1O

IC50 (Dipeptidyl peptidase 4 [1]): 12.6 µM
Structure (SMILES): COc1cc(O)c(Cl)cc1/C=C/C(=O)c1ccc(C(F)(F)F)cc1

IC50 (Dipeptidyl peptidase 4 [1]): 30.4 µM
Structure (SMILES): C=CC(C)(C)c1cc(/C=C/C(=O)c2ccc(O)cc2)c(OC)cc1O [LICOAGROCHACONE A]

IC50 (Dipeptidyl peptidase 4 [1]): 6.67 µM
Ki (Dipeptidyl peptidase 4 [6]): 14.4 µM
Structure (SMILES): O=c1c(O)c(-c2ccc(O)cc2)oc2cc(O)cc(O)c12 [KAEMPFEROL]

IC50 (Dipeptidyl peptidase 4 [1]): > 100 µM
Structure (SMILES): CCCCOc1ccc(C(=O)/C=C/c2cc(Br)c(O)cc2OC)cc1

IC50 (Dipeptidyl peptidase 4 [1]): 9.87 µM
Ki (Dipeptidyl peptidase 4 [6]): 3.18 µM
Structure (SMILES): COc1cc(O)c(Cl)cc1/C=C/C(=O)c1ccc(Br)cc1

Structure (SMILES): N[C@@H](CC(=O)N1CCn2c(nnc2C(F)(F)F)C1)Cc1cc(F)c(F)cc1F
Activity (RAW264.7 [4]): Active
Activity (RAW264.7 [7]): Active
Activity (RAW264.7 [9]): Active

Reference: ChEMBL document CHEMBL5360591, “Licochalcone A Derivatives as Selective Dipeptidyl Peptidase 4 Inhibitors with Anti-Inflammatory Effects” (J Nat Prod, 2023)
